Experimental data: patent US10314825B2, “Agent for treatment of PBC” (KOWA COMPANY, LTD., priority 2017, dated 2019)

Assays:
Format in all cases: in vivo, human
[1] = test system: patients with dyslipidemia showing a high level of triglyceride (TG); experiment: Changes in total bilirubin levels after 12 weeks, clinical trial data (Example 1); details: for total bilirubin level, Rate of change (LSmean): 12 weeks vs baseline
Protocol: By using data (1965 cases in total) obtained in a clinical trial (8 tests with an administration period of 12 weeks or more) of Compound A, which had been performed for patients with dyslipidemia showing a high level of triglyceride (TG), the effects of Compound A for ALP and total bilirubin were investigated. Compound A was administered at a dose of 0.05 to 0.4 mg per day to Compound A group. […] Each compound was administered to Compound A group and a control group for 12 weeks, and changes in the levels of ALP before and after the administration are shown in Table 1 and FIG. 1, and changes in the levels of total bilirubin before and after the administration are shown in Table 2 and FIG. 2. Note that comparisons between the groups were investigated by using covariance analysis with baseline levels used as covariates.

[2] = test system: patients with dyslipidemia showing a high level of TG being treated with ursodeoxycholic acid; experiment: Changes in total bilirubin levels after 12 weeks in patients being treated with ursodeoxycholic acid (Example 2); details: 0.05 to 0.4 mg per day
Protocol: (§1) Data of patients being treated with ursodeoxycholic acid (15 cases in total) were extracted from the data obtained in a clinical trial (8 tests with an administration period of 12 weeks or more) of Compound A, which had been performed for patients with dyslipidemia showing a high level of TG, the effects of Compound A for the ALP and the total bilirubin were investigated. Compound A was administered at a dose of 0.05 to 0.4 mg per day to Compound A group. Further, placebo was administered to a control group. Each compound was administered to Compound A group and a control group for 12 weeks, and changes in the levels of ALP before and after the administration are shown in Table 3 and FIG. 3, and changes in the levels of total bilirubin before and after the administration are shown in Table 4 and FIG. 4. Note that comparisons between the groups were investigated by using covariance analysis with baseline levels used as covariates.

[3] = test system: patients with dyslipidemia showing a high level of TG being treated with ursodeoxycholic acid; experiment: Changes in ALP levels after 12 weeks in patients being treated with ursodeoxycholic acid (Example 2); details: 0.05 to 0.4 mg per day
Protocol: as §1

[4] = test system: patients with dyslipidemia showing a high level of triglyceride (TG); experiment: Changes in ALP levels after 12 weeks, clinical trial data (Example 1); details: for ALP level, Rate of change (LSmean): 12 weeks vs baseline
Protocol: Compound A was administered at a dose of 0.05 to 0.4 mg per day to Compound A group. […] Note that comparisons between the groups were investigated by using covariance analysis with baseline levels used as covariates.

[5] = 0.05 to 0.4 mg per day, 12 weeks
[6] = 100 mg/day micronized fenofibrate capsule formulation
[7] = 106.6 mg/day solid dispersion fenofibrate tablet

Row | SMILES | effect on level of total bilirubin as compared with placebo [1, 5] | effect on level of total bilirubin [2] | effect on level of ALP [3] | effect on level of ALP as compared with placebo [4, 5] | effect on level of ALP compared with fenofibrate at the maximum clinical dose (200 mg per day) ([4]; dose of 0.1 mg or more, 12 weeks) | total bilirubin level, Rate of change (LSmean) [1, 6] | total bilirubin level, 12 Weeks ([1]; 100 mg/day micronized fenofibrate capsule formulation, 12 weeks, baseline 0.8) [mg/dL] | total bilirubin level, Rate of change (LSmean) [1, 7] | total bilirubin level, 12 Weeks ([1]; 106.6 mg/day solid dispersion fenofibrate tablet, 12 weeks, baseline 0.8) [mg/dL] | total bilirubin level, Rate of change (LSmean) ([1]; 200 mg/day micronized fenofibrate capsule formulation) | total bilirubin level, 12 Weeks ([1]; 200 mg/day micronized fenofibrate capsule formulation, 12 weeks, baseline 0.9) [mg/dL] | ALP level, Rate of change (LSmean) [4, 6] | ALP level, 12 Weeks ([4]; 100 mg/day micronized fenofibrate capsule formulation, 12 weeks, baseline 226.3) [IU/L] | ALP level, Rate of change (LSmean) [4, 7] | ALP level, 12 Weeks ([4]; 106.6 mg/day solid dispersion fenofibrate tablet, 12 weeks, baseline 235.3) [IU/L] | ALP level, 12 Weeks ([4]; 200 mg/day micronized fenofibrate capsule formulation, 12 weeks, baseline 222.5) [IU/L]
1 | CC[C@@H](Oc1cccc(CN(CCCOc2ccc(OC)cc2)c2nc3ccccc3o2)c1)C(=O)O [Compound A, (R)-2-[3-[[N-(benzoxazol-2-yl)-N-3-(4-methoxyphenoxy)propyl]aminomethyl]phenoxy] butyric acid] | decreases dose-dependently | decreases the levels of ALP and total bilirubin | decreases the levels of ALP and total bilirubin | decreases dose-dependently | decreases the level of ALP more strongly than the fenofibrate |  |  |  |  |  |  |  |  |  |  | 
2 | CC(C)OC(=O)C(C)(C)Oc1ccc(C(=O)c2ccc(Cl)cc2)cc1 [fenofibrate] |  |  |  |  |  | −5.2 | 0.7 | −4.2 | 0.7 | −9.3 | 0.7 | −11.1 | 198.7 | −14.7 | 198.8 | 182.5
